pIC50: −log10 of the molar value.
Columns and labels:
Format in all cases: functional, cell-based
[1] = tested on: MCF7; experiment: Cytotoxicity against human MCF7 cells assessed as reduction in cell viability after 48 hrs by MTS assay; details: MCF7, 48 h
[2] = tested on: HL-60; experiment: Cytotoxicity against human HL60 cells assessed as reduction in cell viability after 48 hrs by MTS assay; details: HL-60, 48 h
[3] = tested on: SMMC-7721; experiment: Cytotoxicity against human SMMC7721 cells assessed as reduction in cell viability after 48 hrs by MTS assay; details: SMMC-7721, 48 h
[4] = tested on: A549; experiment: Cytotoxicity against human A549 cells assessed as reduction in cell viability after 48 hrs by MTS assay; details: A549, 48 h
[5] = tested on: SW480; experiment: Cytotoxicity against human SW480 cells assessed as reduction in cell viability after 48 hrs by MTS assay; details: SW480, 48 h

| Structure (SMILES) | pIC50 [1] | pIC50 [2] | pIC50 [3] | pIC50 [4] | pIC50 [5] |
| --- | --- | --- | --- | --- | --- |
| C/C=C(\C)C(=O)O[C@@H]1C[C@@H]2[C@@]3(C)CC[C@H](O[C@H]4C[C@H](OC)[C@H](O[C@H]5C[C@H](OC)[C@H](O[C@H]6C[C@@H](OC)[C@H](O)[C@@H](C)O6)[C@@H](C)O5)[C@@H](C)O4)CC3=CC[C@@]2(O)[C@@]2(O)CC[C@@](O)(C(C)=O)[C@@]12C | < 4.40 | 4.81 | < 4.40 | < 4.40 | < 4.40 |
| CO[C@H]1C[C@H](O[C@H]2CC[C@@]3(C)C(=CC[C@]4(O)[C@@H]3C[C@@H](OC(=O)/C=C(\C)C(C)C)[C@@]3(C)[C@]4(O)CC[C@@]3(O)C(C)=O)C2)O[C@H](C)[C@H]1O[C@H]1C[C@H](OC)[C@H](O[C@H]2C[C@@H](OC)[C@H](O[C@H]3C[C@@H](OC)[C@H](O)[C@@H](C)O3)[C@@H](C)O2)[C@@H](C)O1 | 4.74 | 4.91 | 4.51 | < 4.40 | 4.54 |
| COc1cc(C(=O)O[C@@H]2C[C@@H]3[C@@]4(C)CC[C@H](O[C@H]5C[C@H](O)[C@H](O[C@H]6C[C@H](OC)[C@H](O[C@H]7C[C@@H](OC)[C@H](O)[C@@H](C)O7)[C@@H](C)O6)[C@@H](C)O5)CC4=CC[C@@]3(O)[C@@]3(O)CC[C@@](O)(C(C)=O)[C@@]23C)ccc1O | < 4.40 | 4.42 | < 4.40 | < 4.40 | < 4.40 |
| CO[C@H]1C[C@H](O[C@H]2[C@@H](OC)C[C@H](O[C@H]3CC[C@]4(C)[C@H]5C[C@@H](OC(=O)/C=C(\C)C(C)C)[C@@]6(C)[C@](O)(CC[C@@]6(O)C(C)=O)[C@]5(O)C[C@@H]5O[C@@]54C3)O[C@@H]2C)O[C@H](C)[C@H]1O | < 4.40 | 4.80 | < 4.40 | < 4.40 | < 4.40 |
| CO[C@H]1C[C@H](O[C@H]2[C@@H](O)C[C@H](O[C@H]3CC[C@@]4(C)C(=CC[C@]5(O)[C@@H]4C[C@@H](OC(=O)/C=C(\C)C(C)C)[C@@]4(C)[C@]5(O)CC[C@@]4(O)C(C)=O)C3)O[C@@H]2C)O[C@H](C)[C@H]1O | < 4.40 | 4.80 | < 4.40 | < 4.40 | < 4.40 |
| CO[C@H]1C[C@H](O[C@H]2CC[C@@]3(C)C(=CC[C@]4(O)[C@@H]3C[C@@H](OC(=O)/C=C/C(C)C)[C@@]3(C)[C@]4(O)CC[C@@]3(O)C(C)=O)C2)O[C@H](C)[C@H]1O[C@H]1C[C@H](OC)[C@H](O[C@H]2C[C@@H](OC)[C@H](O)[C@@H](C)O2)[C@@H](C)O1 | < 4.40 | 4.59 | < 4.40 | < 4.40 | < 4.40 |
| CO[C@H]1C[C@H](O[C@H]2CC[C@@]3(C)C(=CC[C@]4(O)[C@@H]3C[C@@H](OC(=O)/C=C(\C)C(C)C)[C@@]3(C)[C@]4(O)CC[C@@]3(O)C(C)=O)C2)O[C@H](C)[C@H]1O | < 4.40 | 4.59 | < 4.40 | < 4.40 | < 4.40 |
| CO[C@H]1C[C@H](O[C@H]2CC[C@@]3(C)C(=CC[C@]4(O)[C@@H]3C[C@@H](OC(=O)/C=C(\C)C(C)C)[C@@]3(C)[C@]4(O)CC[C@@]3(O)C(C)=O)C2)O[C@H](C)[C@H]1O[C@H]1C[C@@H](OC)[C@H](O)[C@@H](C)O1 | < 4.40 | 4.81 | < 4.40 | < 4.40 | < 4.40 |
| CO[C@H]1C[C@H](O[C@H]2CC[C@@]3(C)C(=CC[C@]4(O)[C@@H]3C[C@@H](OC(=O)c3ccccc3)[C@@]3(C)[C@]4(O)CC[C@@]3(O)C(C)=O)C2)O[C@H](C)[C@H]1O[C@H]1C[C@@H](OC)[C@H](O)[C@@H](C)O1 | < 4.40 | 4.81 | < 4.40 | < 4.40 | < 4.40 |
| CO[C@H]1C[C@H](O[C@H]2CC[C@@]3(C)C(=CC[C@]4(O)[C@@H]3C[C@@H](OC(=O)c3ccc(O)cc3)[C@@]3(C)[C@]4(O)CC[C@@]3(O)C(C)=O)C2)O[C@H](C)[C@H]1O[C@H]1C[C@H](OC)[C@H](O[C@H]2C[C@@H](OC)[C@H](O)[C@@H](C)O2)[C@@H](C)O1 | < 4.40 | 4.54 | < 4.40 | < 4.40 | < 4.40 |
| CO[C@H]1C[C@H](O[C@H]2CC[C@@]3(C)C(=CC[C@]4(O)[C@@H]3C[C@@H](OC(=O)/C=C(\C)C(C)C)[C@@]3(C)[C@]4(O)CC[C@@]3(O)C(C)=O)C2)O[C@H](C)[C@H]1O[C@H]1C[C@H](OC)[C@H](O[C@H]2C[C@@H](OC)[C@H](O)[C@@H](C)O2)[C@@H](C)O1 | 4.79 | 4.94 | 4.55 | 4.56 | 4.52 |
| CO[C@H]1C[C@H](O[C@H]2CC[C@@]3(C)C(=CC[C@]4(O)[C@@H]3C[C@@H](OC(=O)/C=C(\C)C(C)C)[C@@]3(C)[C@]4(O)CC[C@@]3(O)C(C)=O)C2)O[C@H](C)[C@H]1O[C@H]1C[C@H](O)[C@H](O[C@H]2C[C@@H](OC)[C@H](O)[C@@H](C)O2)[C@@H](C)O1 | 4.76 | 4.89 | 4.56 | 4.52 | 4.61 |
| CO[C@H]1C[C@H](O[C@H]2[C@@H](OC)C[C@H](O[C@H]3CC[C@@]4(C)C(=CC[C@]5(O)[C@@H]4C[C@@H](OC(=O)/C=C/c4ccccc4)[C@@]4(C)[C@]5(O)CC[C@@]4(O)C(C)=O)C3)O[C@@H]2C)O[C@H](C)[C@H]1O | 4.59 | 4.69 | 4.48 | 4.45 | 4.44 |

— ChEMBL document CHEMBL4219202, “C21 steroidal glycosides with cytotoxic activities from Cynanchum otophyllum” (Bioorg Med Chem Lett, 2018)
